{"source": "paper PMC12023779", "about": "“Characterization, thermostable mechanism, and molecular docking of a novel glucose-tolerant β-glucosidase/β-galactosidase from the GH1 family isolated from Rehai hot spring” (Frontiers in Microbiology, 2025)", "key": {"[1]": {"system": "T1, Y50Bg4", "T1 construct": "expressed in E. coli DH5alpha, Ni-NTA purified; primers encode MKIDGGLKC... at N-end and ...EIIKKYKE at C-end", "assay": "glucose oxidase-peroxidase assay, Michaelis-Menten non-linear fit", "assay_type": "biochemical, uncultured bacterium", "conditions": "sodium citrate buffer pH 6.0, 60°C; 0-20 mg/mL substrate", "text": "glucose oxidase-peroxidase assay, Michaelis-Menten non-linear fit on Y50Bg4"}, "[2]": {"system": "T1, Y50Bg4", "assay": "p-nitrophenol release at […] nm, Michaelis-Menten non-linear fit", "assay_type": "biochemical, uncultured bacterium", "conditions": "sodium citrate buffer pH 6.0, 60°C; 0-2 mM substrate"}}, "data": [{"smiles": "OC[C@H]1O[C@@H](O[C@H]2[C@H](O)[C@@H](O)C(O)O[C@@H]2CO)[C@H](O)[C@@H](O)[C@@H]1O", "note": "(some centres unmarked) [cellobiose]", "values": [{"measurement": "Km", "setting": "[1]", "value": 4.69, "unit": "mg/mL"}]}, {"smiles": "O=[N+]([O-])c1ccc(O[C@@H]2O[C@H](CO)[C@@H](O)[C@H](O)[C@H]2O)cc1", "note": "[p-nitrophenyl-β-D-glucopyranoside]", "values": [{"measurement": "Km", "setting": "[2]", "value": 530, "unit": "µM"}]}]}
